This note sets out measurements from patent publication US10016354B2, “Compositions containing polymeric, ionic compounds comprising imidazolium groups” (BASF SE, priority 2011, dated 2018).

In brackets after ≈: the same amount, converted by molar mass.

Assay [1] concerns Pseudomonas aeruginosa ATCC 27853. Kind of assay: Minimum Inhibitory Concentration (MIC) test. The conditions noted are these: Table 3, known antibiotics as control; 24 h at 37° C. Type of assay: cell-based.
For assay [2], the system named is Staphylococcus aureus ATCC 29213. Kind of assay: Minimum Inhibitory Concentration (MIC) test. Type of assay: cell-based. The conditions noted are these: Table 3, known antibiotics as control; 24 h at 37° C.

Turning to `CC1=C(C(=O)O)N2C(=O)[C@@H](NC(=O)[C@H](N)c3ccccc3)[C@H]2SC1` [Cephalexine], in assay [1], the “MIC Pseudomonas aeruginosa ATCC 27853 = DSM 1117” value is more than 4096 µg/mL. The “MIC Staphylococcus aureus ATCC 29213 = DSM 2569” value in assay [2] turned out to be 4 µg/mL (≈ 0.0115 mM).
